How the values were obtained:
[1] = Plasma stability, rat plasma (HPLC-MS); format: in vitro ADME; details: 10 μM, 37° C.
Procedure: Plasma stability determination of the test compounds in rat, dog, cynomolgus monkey and human plasma is performed using HPLC-MS. For rat, incubations are carried out in 96-well polypropylene plates in 5 aliquots of 70 μL each (one for each time point). […] Five time points are analyzed (0, 15, 120, 480 and 1440 min). For dog, monkey and human, test compounds (2 μM, final solvent concentration 1%) were also incubated at 37° C. and analyzed at five time points (0, 10, 30, 60 and 120 min). All incubations are performed in duplicates. The samples are analyzed by HPLC-MS. The percentage of parent compound remaining after incubation in plasma is determined.

[2] = Polymorph screening of solid state drug substances; format: physicochemical; details: for Dry method and appearance: after stirring at 50 °C for 72 hours; for XRPD results (Dried): dried solid
[3] = Clinical observations for dogs in pharmacokinetic studies; format: in vivo, Beagle dogs; details: dog D1503, 96 mg/kg, Day 1
Procedure: Weight monitoring was done every week.
The dose formulation (concentration—400 mg base equivalents/ml in sesame oil+1% benzyl alcohol, unless otherwise specified) was administered via deep intramuscularly (unless otherwise specified). The injection vehicle was also dosed via deep intramuscular route (unless otherwise specified) on contralateral site of each animal at study initiation. The animals were sedated with Propofol at 6 mg/kg via IV administration. Following sedation hair was carefully removed from around the injection site and the area gently cleaned. Care will be taken to avoid irritating skin during shaving and cleaning the injection site. Then dogs will be dosed with deep IM administration. At least 2.5 cm depth from the surface into the central aspect of the quadriceps or biceps femoris muscle, by angling the needle toward the femur. If the needle hits the femur, simply draws back slightly and then inject. The dose volume will be determined by the animals' body weight collected on the morning of dosing day. For repeated administration, the injection sites may be rotated to minimize tissue injury.

Compound	% remaining at time point in minutes, 0 min [1] [%]	% remaining at time point in minutes, 15 min [1] [%]	% remaining at time point in minutes, 120 min [1] [%]	% remaining at time point in minutes, 480 min [1] [%]	% remaining at time point in minutes, 1440 min [1] [%]	further results
CCCCCCCCCCOC(=O)Oc1ccc2c3c1O[C@H]1C(=O)CC[C@@]4(O)C(C2)N(CC2CC2)CC[C@]314 [Compound 10, (4aS,7aR,12bS)-3-(cyclopropylmethyl)-4a-hydroxy-7-oxo-2,3,4,4a,5,6,7,7a-octahydro-1H-4,12-methanobenzofuro[3,2-e]isoquinolin-9-yl decyl carbonate]	100	0	0	0	0	Dry method and appearance ([2]; Acetone): Evaporation/White wax; XRPD results (Dried) ([2]; Acetone): Pattern A; Dry method and appearance ([2]; EtOAc): Evaporation/White wax; XRPD results (Dried) ([2]; EtOAc): Pattern A; Dry method and appearance ([2]; Heptane): Centrifugation/White wax; XRPD results (Dried) ([2]; Heptane): Pattern A; Dry method and appearance ([2]; Isopropanol): Evaporation/White wax; XRPD results (Dried) ([2]; Isopropanol): Pattern A; Dry method and appearance ([2]; MTBE): Evaporation/White wax; XRPD results (Dried) ([2]; MTBE): Pattern A
C=C1CC[C@@]2(O)C3Cc4ccc(OC(=O)CCCCCCCCCCCCCCCCCCC)c5c4[C@@]2(CCN3CC2CC2)[C@H]1O5 [Compound 16, (4aS,7aS,12bS)-3-(cyclopropylmethyl)-4a-hydroxy-7-methylene-2,3,4,4a,5,6,7,7a-octahydro-1H-4,12-methanobenzofuro[3,2-e]isoquinolin-9-yl icosanoate]						Dry method and appearance ([2]; Acetone): Evaporation/white powder; XRPD results (Dried) ([2]; Acetone): Pattern A; Dry method and appearance ([2]; EtOAc): Evaporation/white powder; XRPD results (Dried) ([2]; EtOAc): Pattern A; Dry method and appearance ([2]; Heptane): Centrifugation/white powder; XRPD results (Dried) ([2]; Heptane): Pattern A; Dry method and appearance ([2]; Isopropanol): Centrifugation/white powder; XRPD results (Dried) ([2]; Isopropanol): Pattern A; Dry method and appearance ([2]; MTBE): Evaporation/white powder; XRPD results (Dried) ([2]; MTBE): Pattern A
C=C1CC[C@@]2(O)C3Cc4ccc(OC(=O)OCCCCCCCC)c5c4[C@@]2(CCN3CC2CC2)[C@H]1O5 [Compound 17, (4aS,7aS,12bS)-3-(cyclopropylmethyl)-4a-hydroxy-7-methylene-2,3,4,4a,5,6,7,7a-octahydro-1H-4,12-methanobenzofuro[3,2-e]isoquinolin-9-yl octyl carbonate]	100	0	0	0	0	
C=C1CC[C@@]2(O)C3Cc4ccc(OC(=O)OCCCCCCCCCC)c5c4[C@@]2(CCN3CC2CC2)[C@H]1O5 [Compound 18, (4aS,7aS,12bS)-3-(cyclopropylmethyl)-4a-hydroxy-7-methylene-2,3,4,4a,5,6,7,7a-octahydro-1H-4,12-methanobenzofuro[3,2-e]isoquinolin-9-yl decyl carbonate]	100	0.6	0.3	0.1	0	
CCCCCCCCOC(=O)Oc1ccc2c3c1O[C@H]1C(=O)CC[C@@]4(O)C(C2)N(CC2CC2)CC[C@]314 [Compound 23, (4aS,7aR,12bS)-3-(cyclopropylmethyl)-4a-hydroxy-7-oxo-2,3,4,4a,5,6,7,7a-octahydro-1H-4,12-methanobenzofuro[3,2-e]isoquinolin-9-yl octyl carbonate]	100	0	0	0	0	
C=C1CC[C@@]2(O)C3Cc4ccc(OCOC(=O)OCCCCCCCCCCCCCC)c5c4[C@@]2(CCN3CC2CC2)[C@H]1O5 [Compound 25, (((4aS,7aS,12bS)-3-(cyclopropylmethyl)-4a-hydroxy-7-methylene-2,3,4,4a,5,6,7,7a-octahydro-1H-4,12-methanobenzofuro[3,2-e]isoquinolin-9-yl)oxy)methyl tetradecyl carbonate]	100					
C=C1CC[C@@]2(O)C3Cc4ccc(OC(=O)OCCCCCCCCCCCCC)c5c4[C@@]2(CCN3CC2CC2)[C@H]1O5 [Compound 30, (4aS,7aS,12bS)-3-(cyclopropylmethyl)-4a-hydroxy-7-methylene-2,3,4,4a,5,6,7,7a-octahydro-1H-4,12-methanobenzofuro[3,2-e]isoquinolin-9-yl tridecyl carbonate]	100					
C=C1CC[C@@]2(O)C3Cc4ccc(OC(=O)CCCCCCC/C=C\CCCCCCCC)c5c4[C@@]2(CCN3CC2CC2)[C@H]1O5 [Compound 36, (4aS,7aS,12bS)-3-(cyclopropylmethyl)-4a-hydroxy-7-methylene-2,3,4,4a,5,6,7,7a-octahydro-1H-4,12-methanobenzofuro[3,2-e]isoquinolin-9-yl oleate]	100					
C=C1CC[C@@]2(O)C3Cc4ccc(OC(=O)NC(C)(C)C)c5c4[C@@]2(CCN3CC2CC2)[C@H]1O5 [Compound 40, (4aS,7aS,12bS)-3-(cyclopropylmethyl)-4a-hydroxy-7-methylene-2,3,4,4a,5,6,7,7a-octahydro-1H-4,12-methanobenzofuro[3,2-e]isoquinolin-9-yl tert-butylcarbamate]						Dry method and appearance ([2]; Acetone): Evaporation/white powder; XRPD results (Dried) ([2]; Acetone): Amorphous; Dry method and appearance ([2]; EtOAc): Evaporation/white powder; XRPD results (Dried) ([2]; EtOAc): Pattern A; Dry method and appearance ([2]; Heptane): Centrifugation/white powder; XRPD results (Dried) ([2]; Heptane): Pattern A; Dry method and appearance ([2]; Isopropanol): Evaporation/oil; XRPD results (Dried) ([2]; Isopropanol): Amorphous; Dry method and appearance ([2]; MTBE): Evaporation/white powder; XRPD results (Dried) ([2]; MTBE): Amorphous
C=C1CC[C@@]2(O)C3Cc4ccc(OCOC(=O)CCCCCCCCCCCCC)c5c4[C@@]2(CCN3CC2CC2)[C@H]1O5 [Compound 45, (((4aS,7aS,12bS)-3-(cyclopropylmethyl)-4a-hydroxy-7-methylene-2,3,4,4a,5,6,7,7a-octahydro-1H-4,12-methanobenzofuro[3,2-e]isoquinolin-9-yl)oxy)methyl tetradecanoate]						Clinical observations (cell spans L-vehicle and R-TA) [3]: Liquid feces about 20 mL
CCCCCCCCCCCCCCCCCCCC(=O)Oc1ccc2c3c1O[C@H]1C(=O)CC[C@@]4(O)C(C2)N(CC2CC2)CC[C@]314 [Compound 50, (4aS,7aR,12bS)-3-(cyclopropylmethyl)-4a-hydroxy-7-oxo-2,3,4,4a,5,6,7,7a-octahydro-1H-4,12-methanobenzofuro[3,2-e]isoquinolin-9-yl icosanoate]	100					
CCCCCCCCCCCCCCCCCCCCCC(=O)Oc1ccc2c3c1O[C@H]1C(=O)CC[C@@]4(O)C(C2)N(CC2CC2)CC[C@]314 [Compound 51, (4aS,7aR,12bS)-3-(cyclopropylmethyl)-4a-hydroxy-7-oxo-2,3,4,4a,5,6,7,7a-octahydro-1H-4,12-methanobenzofuro[3,2-e]isoquinolin-9-yl docosanoate]	100					
CCCCCCCCCCCCCCCCCC(=O)Oc1ccc2c3c1O[C@H]1C(=O)CC[C@@]4(O)C(C2)N(CC2CC2)CC[C@]314 [Compound 54, (4aS,7aR,12bS)-3-(cyclopropylmethyl)-4a-hydroxy-7-oxo-2,3,4,4a,5,6,7,7a-octahydro-1H-4,12-methanobenzofuro[3,2-e]isoquinolin-9-yl stearate]	100					
CCCCCCCCCCCCCC(=O)Oc1ccc2c3c1O[C@H]1C(=O)CC[C@@]4(O)C(C2)N(CC2CC2)CC[C@]314 [Compound 57, (4aS,7aR,12bS)-3-(cyclopropylmethyl)-4a-hydroxy-7-oxo-2,3,4,4a,5,6,7,7a-octahydro-1H-4,12-methanobenzofuro[3,2-e]isoquinolin-9-yl tetradecanoate]	100		3.2	1.2	0	
CCCCCCCCCCCCCCC(=O)Oc1ccc2c3c1O[C@H]1C(=O)CC[C@@]4(O)C(C2)N(CC2CC2)CC[C@]314 [Compound 58, (4aS,7aR,12bS)-3-(cyclopropylmethyl)-4a-hydroxy-7-oxo-2,3,4,4a,5,6,7,7a-octahydro-1H-4,12-methanobenzofuro[3,2-e]isoquinolin-9-yl pentadecanoate]	100	37	20	2.9	1.8	
Enalapril maleate salt [reference compound]	100	44	2.9	8.2	4.8	
